“And” between values parts separate entries of the source, which are not always exact repeats. Identical values can stand only once. Like-named read-outs stand apart in the source and are kept apart here.
Columns and labels:
EGFR = target: T1, EGFR (Homo sapiens, UniProt P00533); assay: Receptor tyrosine kinase inhibition, EGFR; format: cell-based; conditions: read-out: EGFR ID50
T1 construct: expressed in transfected cells; host or cells: NIH3T3 mouse fibroblasts, retroviral vector
Protocol: (§1) For western blotting, cells were plated in 2 mL growth medium into 6-well dishes (500,000 cells per well) and allowed to attach overnight. The medium was replaced with 2 mL MCDB 105 (UCSF Cell Culture Facility) supplemented with 1% FBS. The plates were then incubated overnight at 37° C., ambient CO2. […] After a 7 min incubation at room temperature with ligand, the plates were put on ice and washed three times with 1 mL ice-cold PBS plus 1 mM orthovanadate. Lysis was achieved by pipetting cells in 0.5 mL of buffer containing 50 mM Tris, pH 7.4, 10% glycerol, 1% NP-40, 2 mM EDTA, 1 mM sodium vanadate (Na3 VO4), 10 mM pyrophosphate, 1 mM PMSF, […]. A 300 μL aliquot of each lysate was immediately added to 100 μL 4×Laemmli sample buffer ([…] Tris pH 6.9, 20% glycerol, 7% SDS, 5 mM EDTA, 5% β-mercaptoethanol) containing phosphatase inhibitors, 2 mM Na3 VO4 and 10 mM pyrophosphate. Samples were boiled for 5 min, frozen in dry ice-ethanol, and stored at -80° C. Proteins were resolved by SDS-PAGE (Bio-Rad Miniprotean II) and transferred to nitrocellulose membrane (Schleicher & Schuell) at 120 volts for 1 hr at room temperature in buffer containing 25 mM Tris pH 8.3, 20% methanol, 0.2 M glycine, 0.1% SDS. The integrity of the protein-to-membrane transfer was determined by staining with 1% Ponceau S in 5% acetic acid for 5 min. After destaining in several distilled water rinses, the membrane was soaked overnight in blocking buffer containing 5% milk in Tris-buffered saline, 0.05% Tween 20. Phosphotyresine was detected by incubating the membrane (1 hr at room temperature) with an anti-phosphotyosine antiserum diluted in blocking buffer at 1:3000. For C6 cells, PDGF-β receptor content in the lysates was confirmed in duplicate sample lanes by western blotting using an antibody specific for PDGF-β receptor (UBI). The antibodies were visualized using ECL reagent from Amersham and by exposure to Fuji RX film.
(§2) For ELISA assays, cells were grown to 80-90% confluency in growth medium and seeded in 96-well tissue culture plates in 0.5% serum at 25,000 to 30,000 cells per well. After overnight incubation in 0.5% serum-containingmedium, cells were changed to serum-free medium and treated with test compound for 2 hr in a 5% CO2, 37° C. incubator. Cells were then stimulated with ligand for 5-10 min followed by lysis with HNTG (20 mM Hepes, 150 mM NaCl, 10% glycerol, 5 mM EDTA, 5 mM Na3 VO4 0.2% Triton X-100, and 2 mM NaPyr). Cell lysates (0.5 mg/well in PBS) were transferred to ELISA plates previously coated with receptor-specific antibody and which had been blocked with 5% milk in TBST (50 mM Tris-HCl pH 7.2, 150 mM NaCl and 0.1% Triton X-100) at room temperature for 30 min. Lysates were incubated with shaking for 1 hr at room temperature. The plates were washed with TBST four times and then incubated with polyclonol anti-phosphotyrosine antibody at room temperature for 30 min. Excess anti-phosphotyrosine antibody was removed by rinsing the plate with TBST four times. Goat anti-rabbit IgG antibody was added to the ELISA plate for 30 min at room temperature followed by rinsing with TBST four more times.
(§3) The ability of different compound to inhibit different receptor tyrosine kinases was tested.

HER2 = assay: Receptor tyrosine kinase inhibition, HER2; format: cell-based; conditions: read-out: HER2 IC50
Protocol: as §1, §2, §3

FLK-1 = target: T2, FLK-1 (Mus musculus, UniProt P35918); assay: Receptor tyrosine kinase inhibition, FLK-1; format: cell-based; conditions: read-out: FLK-1 IC50
T2 construct: expressed in transfected cells; host or cells: NIH3T3 mouse fibroblasts, retroviral vector
T2 sequence (P35918 20-1345): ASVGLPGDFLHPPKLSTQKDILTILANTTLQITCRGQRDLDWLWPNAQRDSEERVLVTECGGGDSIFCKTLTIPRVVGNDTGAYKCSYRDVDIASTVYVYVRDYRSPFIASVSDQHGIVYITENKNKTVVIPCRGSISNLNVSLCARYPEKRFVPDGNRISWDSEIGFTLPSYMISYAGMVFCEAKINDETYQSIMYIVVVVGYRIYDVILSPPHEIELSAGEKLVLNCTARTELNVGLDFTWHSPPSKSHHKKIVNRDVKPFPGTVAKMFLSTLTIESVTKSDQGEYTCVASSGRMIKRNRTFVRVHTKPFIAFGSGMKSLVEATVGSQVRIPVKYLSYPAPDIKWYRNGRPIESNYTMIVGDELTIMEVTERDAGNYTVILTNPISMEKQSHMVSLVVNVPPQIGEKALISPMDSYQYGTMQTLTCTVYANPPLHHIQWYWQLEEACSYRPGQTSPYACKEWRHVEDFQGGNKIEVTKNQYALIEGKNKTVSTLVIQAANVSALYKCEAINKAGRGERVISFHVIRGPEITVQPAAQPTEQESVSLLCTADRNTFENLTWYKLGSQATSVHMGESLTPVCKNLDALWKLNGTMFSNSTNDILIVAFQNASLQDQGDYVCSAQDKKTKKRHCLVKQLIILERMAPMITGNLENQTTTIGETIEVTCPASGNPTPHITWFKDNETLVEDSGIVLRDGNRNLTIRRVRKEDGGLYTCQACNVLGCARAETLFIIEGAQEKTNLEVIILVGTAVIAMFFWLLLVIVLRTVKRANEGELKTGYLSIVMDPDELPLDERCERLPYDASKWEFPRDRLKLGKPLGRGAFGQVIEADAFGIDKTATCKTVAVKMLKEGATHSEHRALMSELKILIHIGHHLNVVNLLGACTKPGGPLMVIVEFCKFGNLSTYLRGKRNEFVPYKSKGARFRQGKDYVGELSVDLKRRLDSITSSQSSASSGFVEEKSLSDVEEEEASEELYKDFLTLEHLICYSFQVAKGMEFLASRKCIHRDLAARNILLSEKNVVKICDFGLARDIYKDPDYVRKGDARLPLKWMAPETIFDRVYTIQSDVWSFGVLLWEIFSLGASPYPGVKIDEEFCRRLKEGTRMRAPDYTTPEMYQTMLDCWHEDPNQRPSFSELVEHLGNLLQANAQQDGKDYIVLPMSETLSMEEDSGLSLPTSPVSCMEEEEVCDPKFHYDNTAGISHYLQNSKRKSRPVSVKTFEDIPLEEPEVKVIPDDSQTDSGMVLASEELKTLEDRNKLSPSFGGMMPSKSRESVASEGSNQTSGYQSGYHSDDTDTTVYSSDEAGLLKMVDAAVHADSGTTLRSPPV
Protocol: as §1, §2, §3

[1] = C6 glioma SC xenograft in mice; format: in vivo; conditions: rat, in vivo, ip; for mortality at 240 h: 60 mg/kg (G24 at d10)
Protocol: (§4) Cell lines were grown in appropriate medium (see Appendix 1). Cells were harvested at or near confluency with 0.05% Trypsin-EDTA and pelleted at 450×g for 10 min. Pellets were resuspended in sterile PBS or media (without FBS) to a particular concentration and the cells were implanted into the hindflank of mice. Tumor growth was measured over 3 to 6 weeks using venier calipers. Tumor volumes were calculated as a product of length×width×height unless otherwise indicated. P values were calculated using the Students' t-test.
(§5) C6 and SKOV-3(T) cells were grown in culture, as described in "cell growth" above, and implanted into the hind flank of a female Balb/c nu/nu mouse at 3×10^6 cells (for C6 experiments), or 1×10^7 cells (for SKOV-3 experiments) in […] of PBS on Day 0. U87MG, U118MG or U373MG human glioblastoma cells (obtained from the ATCC), or A4312 were also implanted into athymic mice. […] Tumors were measured using venier calipers and tumor volume was calculated as a product of tumor length, width, and height.

C6 glioma cells = assay: C6 glioma SC xenograft in mice; format: in vivo
Protocol: as §4, §5

PDGF-R (U1242) = target: T3, PDGF-R (U1242) (Homo sapiens, UniProt P09619); assay: U1242 kinase (PDGF-R activity); format: cell-based
T3 construct: U1242 (PDGF-β receptor); host or cells: U1242 MG glioma cells
T3 sequence (P09619 33-1106): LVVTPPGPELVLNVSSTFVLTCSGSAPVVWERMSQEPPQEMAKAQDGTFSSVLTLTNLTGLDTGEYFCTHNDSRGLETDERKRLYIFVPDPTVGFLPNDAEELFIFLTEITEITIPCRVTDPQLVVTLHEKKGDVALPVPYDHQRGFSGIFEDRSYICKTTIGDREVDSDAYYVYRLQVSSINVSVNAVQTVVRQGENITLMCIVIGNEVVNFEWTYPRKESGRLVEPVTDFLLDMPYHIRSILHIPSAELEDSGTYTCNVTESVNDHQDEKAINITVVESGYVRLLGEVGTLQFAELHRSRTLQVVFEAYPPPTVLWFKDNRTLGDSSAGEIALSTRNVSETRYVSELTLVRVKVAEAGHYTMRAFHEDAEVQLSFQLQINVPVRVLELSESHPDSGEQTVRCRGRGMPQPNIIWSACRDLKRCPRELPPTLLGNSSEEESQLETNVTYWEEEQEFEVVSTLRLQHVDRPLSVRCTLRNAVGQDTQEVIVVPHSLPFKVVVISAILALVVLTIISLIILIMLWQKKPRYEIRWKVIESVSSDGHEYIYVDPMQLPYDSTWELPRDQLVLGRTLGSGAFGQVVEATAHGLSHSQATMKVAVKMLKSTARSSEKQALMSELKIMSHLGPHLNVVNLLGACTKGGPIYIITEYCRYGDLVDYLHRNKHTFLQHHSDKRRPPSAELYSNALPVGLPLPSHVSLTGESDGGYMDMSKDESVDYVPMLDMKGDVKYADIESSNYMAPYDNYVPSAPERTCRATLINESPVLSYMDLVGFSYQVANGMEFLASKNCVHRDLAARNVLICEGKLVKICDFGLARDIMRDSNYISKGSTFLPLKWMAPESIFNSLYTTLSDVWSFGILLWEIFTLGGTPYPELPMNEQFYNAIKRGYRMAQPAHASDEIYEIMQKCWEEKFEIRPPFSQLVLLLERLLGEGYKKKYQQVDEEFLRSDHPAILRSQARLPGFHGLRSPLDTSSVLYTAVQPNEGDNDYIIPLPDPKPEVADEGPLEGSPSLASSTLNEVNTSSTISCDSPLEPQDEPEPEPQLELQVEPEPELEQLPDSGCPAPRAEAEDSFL
Protocol: as §1, with “The medium was replaced with 2 mL MCDB 105 (UCSF Cell Culture Facility) supplemented with 1% FBS.” left out, “Proteins were resolved by SDS-PAGE (Bio-Rad Miniprotean II) and transferred to nitrocellulose membrane (Schleicher & Schuell) at 120 volts for 1 hr at room temperature in buffer containing 25 mM Tris pH 8.3, 20% methanol, 0.2 M glycine, 0.1% SDS.” left out, “For C6 cells, PDGF-β receptor content in the lysates was confirmed in duplicate sample lanes by western blotting using an antibody specific for PDGF-β receptor (UBI).” left out
(§6) For ELISA assays, cells were grown to 80-90% confluency in growth medium and seeded in 96-well tissue culture plates in 0.5% serum at 25,000 to 30,000 cells per well. After overnight incubation in 0.5% serum-containingmedium, cells were changed to serum-free medium and treated with test compound for 2 hr in a 5% CO2, 37° C. incubator. […] Lysates were incubated with shaking for 1 hr at room temperature. The plates were washed with TBST four times and then incubated with polyclonol anti-phosphotyrosine antibody at room temperature for 30 min. Excess anti-phosphotyrosine antibody was removed by rinsing the plate with TBST four times. Goat anti-rabbit IgG antibody was added to the ELISA plate for 30 min at room temperature followed by rinsing with TBST four more times.
PDGF-R activity, C6 SRB, and in vivo efficacy were measured using the procedures described in the appendices above.

LD10 = conditions: in vivo
PDGFR [2] = target: PDGFR (Homo sapiens, UniProt P09619); assay: Receptor tyrosine kinase inhibition, PDGFR; format: cell-based; parameters: U1242 (PDGF-β receptor); host or cells: U1242 glioma cells (ELISA)
Chain of PDGFR (Homo sapiens, UniProt P09619) (P09619 33-1106): as above
Protocol: as §1, with “The medium was replaced with 2 mL MCDB 105 (UCSF Cell Culture Facility) supplemented with 1% FBS.” left out, “Proteins were resolved by SDS-PAGE (Bio-Rad Miniprotean II) and transferred to nitrocellulose membrane (Schleicher & Schuell) at 120 volts for 1 hr at room temperature in buffer containing 25 mM Tris pH 8.3, 20% methanol, 0.2 M glycine, 0.1% SDS.” left out, “For C6 cells, PDGF-β receptor content in the lysates was confirmed in duplicate sample lanes by western blotting using an antibody specific for PDGF-β receptor (UBI).” left out
as §6, §3

C6 cells = assay: C6 SRB growth assay; format: cell-based, rat; conditions: for IC50: read-out: C6 SRB IC50
PDGFR [3] = assay: Receptor tyrosine kinase inhibition, PDGFR; format: cell-based; conditions: W = done in Western assay; read-out: PDGFR IC50 (W)
Protocol: as §1, with “The medium was replaced with 2 mL MCDB 105 (UCSF Cell Culture Facility) supplemented with 1% FBS.” left out, “Proteins were resolved by SDS-PAGE (Bio-Rad Miniprotean II) and transferred to nitrocellulose membrane (Schleicher & Schuell) at 120 volts for 1 hr at room temperature in buffer containing 25 mM Tris pH 8.3, 20% methanol, 0.2 M glycine, 0.1% SDS.” left out, “For C6 cells, PDGF-β receptor content in the lysates was confirmed in duplicate sample lanes by western blotting using an antibody specific for PDGF-β receptor (UBI).” left out
as §6, §3

[4] = 40 mg/kg (J10 at d18, G24 at d15)
[5] = Rattus norvegicus, C6 glioma, sc, at 40 mg/kg, read-out: C6 in vivo EFFICACY
[6] = W = done in Western assay, read-out: U1242 KINASE IC50 (W)

T1 sequence (P00533 25-1210): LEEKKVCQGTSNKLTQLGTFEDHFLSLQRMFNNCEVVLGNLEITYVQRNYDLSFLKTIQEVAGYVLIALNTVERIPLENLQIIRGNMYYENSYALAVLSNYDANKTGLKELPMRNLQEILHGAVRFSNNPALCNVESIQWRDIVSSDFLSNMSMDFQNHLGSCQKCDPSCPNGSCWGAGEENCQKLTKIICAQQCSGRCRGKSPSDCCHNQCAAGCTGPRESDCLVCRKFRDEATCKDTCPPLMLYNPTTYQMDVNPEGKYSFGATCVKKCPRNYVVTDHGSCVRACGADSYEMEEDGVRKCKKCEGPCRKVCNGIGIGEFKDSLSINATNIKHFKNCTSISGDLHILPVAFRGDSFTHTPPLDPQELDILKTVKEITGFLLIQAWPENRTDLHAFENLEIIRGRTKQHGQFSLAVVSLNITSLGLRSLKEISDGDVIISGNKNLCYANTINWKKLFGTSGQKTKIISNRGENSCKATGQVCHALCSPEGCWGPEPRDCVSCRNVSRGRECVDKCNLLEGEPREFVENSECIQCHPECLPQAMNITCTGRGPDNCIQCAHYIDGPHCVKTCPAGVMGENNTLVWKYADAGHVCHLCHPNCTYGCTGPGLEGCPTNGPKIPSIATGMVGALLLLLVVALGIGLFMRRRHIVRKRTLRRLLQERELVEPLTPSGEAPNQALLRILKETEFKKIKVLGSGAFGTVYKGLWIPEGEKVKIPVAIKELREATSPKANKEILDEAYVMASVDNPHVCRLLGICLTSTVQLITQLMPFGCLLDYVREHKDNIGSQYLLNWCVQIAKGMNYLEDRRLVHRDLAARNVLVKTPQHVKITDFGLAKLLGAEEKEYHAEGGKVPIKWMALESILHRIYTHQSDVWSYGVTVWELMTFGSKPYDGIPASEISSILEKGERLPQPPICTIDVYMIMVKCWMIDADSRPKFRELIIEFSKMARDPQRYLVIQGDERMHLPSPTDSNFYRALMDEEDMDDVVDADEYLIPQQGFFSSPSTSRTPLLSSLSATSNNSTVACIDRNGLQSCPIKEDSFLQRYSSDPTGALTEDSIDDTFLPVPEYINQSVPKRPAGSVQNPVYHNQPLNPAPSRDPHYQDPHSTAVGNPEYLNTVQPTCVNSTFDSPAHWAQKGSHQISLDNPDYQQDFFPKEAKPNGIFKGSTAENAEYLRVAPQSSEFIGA

| IC50 (EGFR) | IC50 (HER2) | IC50 (FLK-1) | IC50 (PDGFR [2]; read-out: PDGFR IC50) | SMILES | IC50 (PDGF-R (U1242); read-out: U1242 KINASE IC50) | LD10 (LD10) | IC50 (C6 cells; Rattus norvegicus, C6) | also measured |
| --- | --- | --- | --- | --- | --- | --- | --- | --- |
| > 50 µM | > 50 µM | > 50 µM | 0.9 µM | Cc1cc2nc(C(=O)O)c(-c3ccccc3)nc2cc1C [Compound G25] | 1 µM |  | 50 µM |  |
| > 50 µM | > 50 µM | > 50 µM | 34 µM | CN(C)CCn1cc(C=C(C#N)c2[nH]nc(N)c2C#N)c2ccccc21 [Compound D18] |  |  |  |  |
|  |  |  |  | COc1cc2ncnc(N3CCc4ccccc43)c2cc1OC [Compound P17] |  | > 100 mg/kg | 12 µM |  |
|  |  |  |  | Cc1noc(C)c1C(=O)Nc1ccc(C(F)(F)F)cc1 [Compound A13, N-trifluoromethlyphenyl 3,5-dimethylisoxazole-4-carboxamide] |  | > 200 mg/kg | > 25 µM | inhibition at 25 µM (C6 cells; Rattus norvegicus, C6, at 25 μM): ~30% |
| 16 µM | 29 µM | 3.3 µM |  | CC(C)(C)c1cc(C=C(C#N)c2[nH]nc(N)c2C#N)cc(C(C)(C)C)c1O [Compound C13] |  |  |  | IC50 (PDGFR [2]): 16 µM |
| < 0.8 µM | 34 µM | 10 µM | 23 µM | Cc1cc2ncc(Nc3cccc(I)c3)nc2cc1C [Compound G29] | 23.2 µM |  | > 13 µM |  |
| > 100 µM | > 50 µM | > 25 µM | 3 µM | N#CCS(=O)(=O)C(C#N)=Cc1cc(O)c(O)c(Br)c1 [Compound J11] | 3.1 µM |  | 14 µM |  |
|  |  |  |  | CC1c2nc3ccccc3c(=O)n2C(c2ccc(O)cc2)N1Cc1ccccc1 (stereo not drawn) [Compound H13] | > 50 µM | > 400 mg/kg | 20 µM | IC50 (C6 cells): 10.5 µM; mortality [1, 4]: 0%; mortality at 192 h ([1]; 100 mg/kg (E15 at d8)): 0%; inhibition in vivo at 40 mg/kg (C6 glioma cells; [5]): 0%; inhibition in vivo at 100 mg/kg (C6 glioma cells; Rattus norvegicus, C6 glioma, sc, at 100 mg/kg, read-out: C6 in vivo EFFICACY): 41% |
|  |  |  |  | COc1cc(C=C(C#N)C(=O)NCCCc2ccccc2)cc(I)c1O [Compound P16] |  | > 400 mg/kg | 17 µM | mortality at 240 h [1]: 0%; C6 in vivo EFFICACY (C6 glioma cells; at 60 mg/kg): no effect |

| SMILES | IC50 (EGFR) | IC50 (HER2) | IC50 (FLK-1) | IC50 (PDGFR [2]; read-out: PDGFR IC50) | IC50 (PDGF-R (U1242); read-out: U1242 KINASE IC50) | LD10 (LD10) | IC50 (C6 cells; Rattus norvegicus, C6) | also measured |
| --- | --- | --- | --- | --- | --- | --- | --- | --- |
| Cc1cc2nc(-c3ccccc3)c(-c3ccc(O)c(O)c3)nc2cc1C [Compound G24] | > 100 µM | > 50 µM | 9.3 µM | 5 µM | 0.6 µM and 5 µM | > 200 mg/kg |  | mortality ([1]; 20 mg/kg): 0%; mortality [1, 4]: 12.5%; mortality at 240 h [1]: 100%; C6 in vivo EFFICACY (C6 glioma cells; at 20 mg/kg): no effect; C6 in vivo EFFICACY (C6 glioma cells; at 40 mg/kg): no effect; C6 in vivo EFFICACY (C6 glioma cells; at 60 mg/kg): no effect |
| Cc1cc2ncc(Nc3ccc(I)cc3)nc2cc1C [Compound G30] | > 100 µM | 34 µM | 10 µM | 32 µM | 32.5 µM |  | 2 µM |  |
| N#CC(=Cc1cc(O)c(O)c(Br)c1)S(=O)(=O)C(C#N)=Cc1cc(O)c(O)c(Br)c1 [Compound J10] | > 100 µM | > 100 µM |  |  | > 50 µM | 171 mg/kg | 12 µM | IC50 (PDGFR [3]): 1 µM; mortality [1, 4]: 100%; inhibition in vivo at 40 mg/kg (C6 glioma cells; [5]): 73%; IC50 (PDGF-R (U1242); [6]): 1 µM |
| CC1c2nc3ccccc3c(=O)n2C(c2ccc(O)c(O)c2)N1Cc1ccccc1 (stereo not drawn) [Compound H10] |  |  | > 50 µM |  | > 50 µM | 75 mg/kg | 13 µM | IC50 (PDGFR [3]): 25 µM; mortality at 408 h ([1]; 30 mg/kg, at d17): 14.3%; inhibition in vivo at 30 mg/kg (C6 glioma cells; Rattus norvegicus, C6 glioma, sc, at 30 mg/kg, read-out: C6 in vivo EFFICACY): 52%; IC50 (PDGF-R (U1242); [6]): 25 µM |
